Laboratory results taken from publication PMC10876669, “Substrate promiscuity of inositol 1,4,5-trisphosphate kinase driven by structurally-modified ligands and active site plasticity” (Nature Communications, 2024).
Several values for one entry are separate records, joined by “and”; a condition that tells them apart may be missing. Identical values can stand only once.

What was measured:
[1] = tested on: permeabilized rabbit platelets; design: method as in doi:10.1016/0960-894X(96)00399-X; conditions: cited from earlier work
IP3K-KD [2] = molecular target: T1, IP3K-KD (Homo sapiens, UniProt P23677); test: HPLC analysis of IP3K-KD reaction mixtures (substrate test); assay type: biochemical; conditions: 150 nM IP3K-KD, 500 μM analogue, 1 mM ATP, 2 h at 30 °C, Fig. 7a
T1 construct: human IP3K-KD A isoform (residues 187–461); GST (cleaved yes); made in house; host or cells: Escherichia coli BL21 star (DE3)
T1 sequence (P23677 187-461): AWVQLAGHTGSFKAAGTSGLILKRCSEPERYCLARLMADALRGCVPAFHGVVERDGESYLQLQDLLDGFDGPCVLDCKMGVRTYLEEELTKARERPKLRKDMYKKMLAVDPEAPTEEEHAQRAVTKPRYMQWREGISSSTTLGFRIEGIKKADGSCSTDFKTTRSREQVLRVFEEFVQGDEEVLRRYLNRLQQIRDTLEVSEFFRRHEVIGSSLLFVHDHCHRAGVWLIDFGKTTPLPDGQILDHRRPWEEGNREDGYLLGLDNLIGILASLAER
Method: (§1) A construct encoding human IP3K-KD A isoform (residues 187–461) into pOPTG vector was used[16]. The protein was expressed in Escherichia coli BL21 star (DE3) strain. Cells were grown at 37 °C to OD600 = 1.0 then induced with 0.4 mM IPTG for 18 h at 16 °C. Protein purification was performed by adapting the reported protocol. Cells were resuspended in buffer A (10 mM Tris pH 7.5 [4 °C], 200 mM NaCl and 2 mM DTT) and disrupted by sonication. Clarified cell lysate was diluted 1/4 in buffer B (10 mM Tris pH 7.5 [4 °C] and 2 mM DTT) and loaded into a 5 mL HiTrap heparin column (GE Healthcare) washed by buffer C (20 mM Tris pH 7.5, 50 mM NaCl and 2 mM DTT), and eluted with a 0.05 M–1 M salt gradient. The eluted sample was subsequently loaded on to a 5 mL glutathione–Sepharose HP column (GE Healthcare), washed with buffer A and eluted with reduced glutathione 10 mM (Sigma-Aldrich) in buffer A. The GST tag was cleaved with home-made TEV (tobacco etch virus) protease overnight at 4 °C, (1:40 TEV/protein mass ratio). After glutathione removal with a PD10 column, the cleaved protein was further purified using a 5 mL glutathione–Sepharose HP column (GE Healthcare) followed by gel filtration on a 16/600 Superdex200 (GE Healthcare) column equilibrated in buffer D (20 mM Tris pH 7.5 [4 °C], 0.05 M (NH4)2SO4 and 2 mM DTT). Protein samples were analyzed by SDS/PAGE, concentrated around 18 mg/mL and stored at −80 °C until use.

[3] = molecular target: T2, IP3K-KD (human IP3K-KD A isoform, residues 187–461) (Homo sapiens, UniProt P23677); test: Ligand displacement assay: fluorescence polarization (anisotropy) of 2-FITC-InsP3/IP3K-KD complex; assay type: binding; conditions: for IC50: 100 nM IP3K-KD, 2 nM 2-FITC-InsP3, 20 mM HEPES pH 7.5, 1 mM EDTA, 50 mM KCl, n=4 replicates, 5-s and 5-p racemic, read-out: IC50, displacement of 2-FITC-InsP3 from IP3K-KD; for Quality as IP3K ligand (in words): Fig. 6; for Kd: estimated Ki (Kd) from IC50 with [2-FITC-InsP3] 2 nM and its Kd 68 nM, read-out: Kd inferred from IC50 (Cheng and Prusoff)
T2 construct: human IP3K-KD A isoform (residues 187–461); GST (cleaved yes); made in house; host or cells: Escherichia coli BL21 star (DE3)
T2 sequence (P23677 187-461): as above
Method: as §1
Binding of a competing/displacing ligand to protein is observed as a decrease in the polarization (anisotropy) of 2-FITC-InsP3. A comparison of the strength of binding of enzyme substrates, analogues and products to IP3K-KD was obtained by measurement of fluorescence polarization (here anisotropy) of 2-FITC-InsP3/IP3K-KD complex. Experimentally, 100 nM IP3K-KD was mixed with 2 nM 2-FITC-InsP3[37] in 20 mM HEPES pH 7.5, 1 mM EDTA and 50 mM KCl with the addition of displacing compounds over a range of 1 nM–50 μM. Assays were analyzed using a ClarioSTAR plate reader and IC50 values determined from fit of the data to a 4-parameter logistic as described. From IC50 values, we have estimated the Ki (Kd) values for the displacing ligands using the equation of Cheng and Prusoff:[69]1 Ki=IC50/1+L/Kd where [L] is the ligand (2-FITC-InsP3) concentration and Kd the dissociation constant for its interaction with IP3K-KD. […] Consequently, the Ki values for the displacing ligands differ trivially from their IC50 values.

[4] = molecular target: T2, IP3K-KD (human IP3K-KD A isoform, residues 187–461); test: Fluorescence thermal shift analysis (Tycho NT.6, inflection temperature Ti); assay type: binding; conditions: for Ti, transition 1 (mean inflection temperature) / Ti, transition 2 (mean inflection temperature): 10 μM IP3K-KD, 100 μM chiral or 200 μM racemic ligand, AMP-PNP or ADP, 100 μM MgCl2; for Ti, transition 1 (mean inflection temperature) / Ti, transition 2 (mean inflection temperature) / ΔTi, transition 1 / ΔTi, transition 2: mean ± SD, n=3; for ΔTi, transition 1: Ti minus Ti of apo IP3K-KD (44.4); for ΔTi, transition 2: Ti minus Ti of apo IP3K-KD (53.8); for Transition 1 Ti, individual measurement / Transition 2 Ti, individual measurement: source data of Fig. 6b/6c, single replicates; for Transition 1 Dti (Ti-Ti Apo) / Transition 1 Ti Mean / Transition 2 DTi (Ti-Ti Apo) / Transition 2 Ti Mean: source data of Fig. 6c, N 3
Method: as §1
Thermal protein denaturation was documented by recording intrinsic protein fluorescence at 330 and 350 nm wavelengths. The fluorescence recorded in each thermal run is plotted as 350/330 nm ratio and used to calculate the Inflection Temperature (Ti). Ti is the temperature at which a protein undergoes a transition in its folding state. This calculation is performed automatically by the Tycho NT.6 software. The protocol optimized for this procedure, involves a heating time of 2 min, a sample volume of 10 μl placed in a very thin capillary, and a temperature ramp from 35 °C (308 K) to 95 °C (368 K). For the experiment, IP3K-KD was diluted with buffer D to achieve a concentration of 0.31 mg/mL (10 μM). It was then mixed with 100 μM of chiral ligands or 200 μM of racemic ligands (all synthesized as stated in this work except InsP3 and InsP4 that were commercial from Avanti Polar Lipids), AMP-PNP (substrate analogues) or ADP (product-like ligands) and 100 μM MgCl2. Microsoft Excel was used to calculate and plot ΔTi values and standard deviations.

[5] = tested on: permeabilized rat hepatocytes; design: method as in PMID 11405648; conditions: cited from earlier work
IP3K-KD [6] = molecular target: T1, IP3K-KD; test: Direct binding of 2-FITC-InsP3 to IP3K-KD, one-site binding model; conditions: GraphPad Prism

Compound	45Ca2+ release relative to InsP3 [1]	Ability to act as IP3K substrate (in words) (IP3K-KD [2])	IC50 [3]	Quality as IP3K ligand (in words) [3]	Kd [3]	Ti, transition 1 (mean inflection temperature) [4]	Ti, transition 2 (mean inflection temperature) [4]	ΔTi, transition 1 [4]	ΔTi, transition 2 [4]	Transition 1 Ti, individual measurement [4]	Transition 2 Ti, individual measurement [4]	Transition 1 Dti (Ti-Ti Apo) [4]	Transition 1 Ti Mean [4]	Transition 2 DTi (Ti-Ti Apo) [4]	Transition 2 Ti Mean [4]	Ability to stimulate cellular Ca2+ release [5]	Kd (IP3K-KD [6])
O=P(O)(O)O[C@@H]1[C@@H](O)[C@H](CO)[C@@H](OP(=O)(O)O)[C@H](OP(=O)(O)O)[C@H]1O (racemic) [5-s, DL−6-deoxy-6-hydroxymethyl-scyllo-inositol 1,2,4-trisphosphate]	equipotent with InsP3 itself	are also substrates	972 nM	good IP3K ligand	944 nM	51.3 ± 0.2 ºC	57.0 ± 0.1 ºC	6.9 ± 0.4 ºC	3.2 ± 0.2 ºC	51.5 and 51.1 and 51.3	56.9 (2×) and 57.1	6.9	51.3	3.2	57.0		
O=P(O)(O)OCC1C(O)C(OP(=O)(O)O)C(O)C(OP(=O)(O)O)C1OP(=O)(O)O (racemic) [5-p, DL-6-deoxy-6-phosphoryloxymethyl-scyllo-inositol 1,2,4-trisphosphate]			875 nM	maintains quite good binding to IP3K	850 nM	52.1 ± 0.1 ºC	57.6 ± 0.1 ºC	7.7 ± 0.3 ºC	3.8 ± 0.2 ºC	52.2 and 52.1 and 52.0	57.6 (2×) and 57.7	7.7	52.1	3.8	57.6	abolishes the ability to stimulate cellular Ca^2+ release	
O=C(O)c1cc(NC(=S)NCCO[C@@H]2[C@H](O)[C@@H](OP(=O)(O)O)[C@H](OP(=O)(O)O)[C@@H](O)[C@@H]2OP(=O)(O)O)ccc1-c1c2ccc(=O)cc-2oc2cc(O)ccc12 [2-FITC-InsP3]																	68 nM
